# Results taken from patent US20240299353A1, “COMPOSITIONS AND METHODS FOR TREATING […] 5-MEO-DMT” (Alvarius Pharmaceuticals Ltd., priority 2021, published 2024).
# Assays:
# FosB = assay: Western blot of FosB in brain regions, chronic cocaine ± 5-MeO-DMT; type: in vivo, Male Wistar rats
# Source text: (§1) Male Wistar rats aged 7 weeks were acclimatized to the facility for 1 week prior to the beginning of the study. […] Animals were euthanized 23- or 119-hours following vehicle or 5-MeO-DMT administration.
# (§2) Following euthanasia brain regions of interest were isolated. Briefly, the olfactory bulbs were removed before the brain was placed in a rat brain matrix (FIG. 2A). Sterile blades were inserted at positions 2 and 3 (FIG. 2B) to extract a coronal slice containing the Bregma+˜0.2-+˜2.2 coordinates (FIG. 2C). From this tissue slice a blunted 12 G needle was used to punch dissect the NAc and dorsal striatum (DS) (FIG. 2D-2E) identified using the rat brain atlas (Panxinos and Watson 2nd edition). The PFC, hippocampus (Hip) and amygdala (Amyg) were then blunt dissected (FIG. 3A-3D). All regions were frozen in liquid nitrogen and stored at −80° C. until processed.
# (§3) These treatment groups were used for the molecular assessment of addiction-linked markers.
# (§4) Determination of protein concentration—a bicinchoninic acid assay (BCA, ThermoFisher) was conducted to determine the total protein concentration in tissue lysates following manufacturer's instructions. Briefly, bovine serum albumin (BSA) standards were prepared in a serial dilution (0-2.0 mg protein/ml) and 200 μl working reagent (50:1, reagent A: reagent B) was added to each of the standards and samples in a 96 well plate (Greiner). For tissue lysates a 1:10 dilution was performed with cell lysis buffer to ensure absorbance values lay within the working range established by the standards. All samples and standards were added in duplicate. The plate was covered and incubated for 30 mins at 37° C. before absorbance was read at 562 nm on a plate reader (SpectraMax M3). The absorbance values were used to form a standard curve of known protein concentrations and protein concentration of samples were derived using the equation of the line. All samples were standardized to the lowest protein concentration using distilled H20 (dH2O).
# (§5) SDS-PAGE and Western Blotting—Following equalisation of protein concentrations, 6× sample loading buffer (15% SDS, 15% […], 50% glycerol, 0.01% bromophenol blue, […]) was added to each sample using a dilution factor of 1:5 of the total volumes before boiling at 100° C. for 5 mins. Samples were stored at −20° C. until use. One dimensional sodium-dodecyl-sulphate polyacrylamide gel electrophoresis (SDS-PAGE) was used for protein separation based on molecular weight. The percentage of acrylamide in the resolving or stacking gel was determined by the molecular weight of the protein of interest. In this instance all gels consisted of a 5% stacking gel and a 10% resolving gel with the exception of mGluR5, G9a (8%) and H3K9Me2 (12%). 20 μg of protein was loaded and resolved using SDS-PAGE. Gel electrophoresis was conducted at 80V while the protein was in the stacking gel, once it migrated to the resolving gel the voltage was increased to 120V and ran for 90 mins. Samples were transferred to a 0.45 μm polyvinylidene difluoride (PVDF) membrane (Analab) for 1 hour at 100V and blocked in 5% milk blocking solution made in tris-buffered saline containing tween®-20 (TBS-T, Sigma) for 90 mins. Primary antibodies (FIG. 5) were diluted in 5% BSA in TBS-T and incubated with membranes overnight at 4° C. or for 2 hours at room temperature. After incubation with primary antibodies the membranes were washed in TBS-T for 4×10 minutes before incubation with 1:2000 anti-rabbit and 1:2000 anti-mouse Alexa Fluro® conjugated secondary antibodies (Invitrogen) in 2% milk for 1 hour at room temperature. Membranes were washed in TBS-T for 4×10 minutes and in TBS for 1×10-minute wash. Proteins were visualized using Odyssey® infrared imaging system. Protein expression was quantified using Image Studio Lite (Version 5.2) and expression intensities were normalized to a house keeping protein, α-Tubulin or β-actin.
# mGluR5 = assay: Western blot of mGluR5 in brain regions, chronic cocaine ± 5-MeO-DMT; type: in vivo, Male Wistar rats
# Source text: as §1
# as §2, with “The PFC, hippocampus (Hip) and amygdala (Amyg) were then blunt dissected (FIG. 3A-3D). All regions were frozen in liquid nitrogen and stored at −80° C. until processed.” left out
# Determination of protein concentration—a bicinchoninic acid assay (BCA, ThermoFisher) was conducted to determine the total protein concentration in tissue lysates following manufacturer's instructions. […] For tissue lysates a 1:10 dilution was performed with cell lysis buffer to ensure absorbance values lay within the working range established by the standards. […] The plate was covered and incubated for 30 mins at 37° C. before absorbance was read at 562 nm on a plate reader (SpectraMax M3). The absorbance values were used to form a standard curve of known protein concentrations and protein concentration of samples were derived using the equation of the line. […]
# G9a = assay: Western blot of G9a in brain regions, chronic cocaine ± 5-MeO-DMT; type: in vivo, Male Wistar rats
# Source text: as §1, §2, §3, §4, §5
# [1] = humans, following insufflation; cited from earlier work
compound,measurement,setting,value
"COc1ccc2[nH]cc(CCN(C)C)c2c1 [5-MeO-DMT, 5-methoxy-N,N-dimethyltryptamine]",FosB expression,"FosB; PFC, 24 h and 120 h, any of the treatments",unchanged by any of the treatments
same,FosB expression,"FosB; amygdala, 24 h, any treatment",no change in FosB levels
same,FosB expression,"FosB; amygdala, 120 h, cocaine x 5-MeO-DMT interaction p=0.0353",no post hoc differences between treatment groups
same,FosB expression,"FosB; dorsal striatum, 24 h, 5-MeO-DMT alone",does not regulate the expression
same,FosB expression,"FosB; dorsal striatum, 120 h, irrespective of the treatment group",no change in expression levels
same,FosB expression,"FosB; nucleus accumbens, 24 h, cocaine+10 mg/kg 5-MeO-DMT (1 h post last cocaine)",increase FosB expression
same,FosB expression,"FosB; nucleus accumbens, 24 h, cocaine+20 mg/kg 5-MeO-DMT (1 h post last cocaine)",no significant difference in FosB expression levels relative to the saline+vehicle control group
same,FosB expression,"FosB; nucleus accumbens, 24 h, saline+10 mg/kg 5-MeO-DMT single dose",not 10 mg/kg increasing expression
same,FosB expression,"FosB; nucleus accumbens, 24 h, saline+20 mg/kg 5-MeO-DMT single dose",increasing expression
same,FosB expression,"FosB; nucleus accumbens, 120 h, 5-MeO-DMT alone",does not persist to 120 hours
same,mGluR5 expression,"mGluR5; PFC, 24 h, 20 mg/kg 5-MeO-DMT in saline treated animals",significant decrease in receptor expression
same,mGluR5 expression,"mGluR5; nucleus accumbens, 5-MeO-DMT, either tested concentration",no change
same,G9a expression,"G9a; PFC, 24 h, cocaine+20 mg/kg 5-MeO-DMT relative to saline+vehicle",significant decrease in G9a expression
same,G9a expression,"G9a; dorsal striatum, 24 h, 20 mg/kg 5-MeO-DMT alone",increased G9a expression levels
same,G9a expression,"G9a; dorsal striatum, 24 h, cocaine + either concentration of 5-MeO-DMT (10 or 20 mg/kg)",significantly reduced G9a levels relative to the cocaine+vehicle group
same,G9a expression,"G9a; dorsal striatum, 120 h, 20 mg/kg 5-MeO-DMT alone",remained significantly elevated
same,G9a expression,"G9a; hippocampus, 5-MeO-DMT alone",no change in enzyme expression
same,G9a expression,"G9a; hippocampus, 24 h, cocaine+20 mg/kg 5-MeO-DMT",normalised the cocaine-induced decrease in G9a
same,end of effects,[1],60 to 70 min
same,peak of effects,[1],35 to 40 min
same,start of effects,[1],3 to 4 min
